Calls of active or inactive are those of the source.

Experiment [1] can be described thus: THP-1 cell cytotoxicity, cytotoxicity control, set 5 (AID 588443). It counts as functional.
A short description of experiment [2]: Vero cell viability loss – purified and synthesized compounds, set 6, cytotoxicity control for M. tuberculosis inhibitor project, dose response (AID 588445). The format is functional. The following applies: Mycobacterium tuberculosis.
The target in experiment [3] is T1, Neuropeptides B/W receptor type 1 (Homo sapiens, UniProt P48145).
T1 sequence (P48145 whole entry): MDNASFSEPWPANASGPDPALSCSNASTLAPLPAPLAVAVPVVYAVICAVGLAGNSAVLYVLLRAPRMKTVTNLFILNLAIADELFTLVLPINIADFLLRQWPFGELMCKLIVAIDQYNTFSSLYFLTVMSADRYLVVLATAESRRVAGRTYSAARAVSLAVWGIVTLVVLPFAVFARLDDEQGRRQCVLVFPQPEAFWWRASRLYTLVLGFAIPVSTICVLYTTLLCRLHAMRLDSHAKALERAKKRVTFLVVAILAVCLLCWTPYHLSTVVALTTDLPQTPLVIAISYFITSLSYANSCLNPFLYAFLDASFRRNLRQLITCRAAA
As to the kind of experiment: human NPBW1 receptor blockade, IC50 – cell-based, fluorescence, dose response, set 5, late-stage follow-up (AID 588566). The format is functional.

Experiment [4] addresses T2, Melanin-concentrating hormone receptor 1 (Homo sapiens, UniProt Q99705). The experiment in a line: Late-stage fluorescence-based counterscreen for antagonists of the G-protein coupled receptor 7 (GPR7): cell-based dose response assay to identify antagonists of the melanin-concentrating hormone receptor 1 (MCHR1) Set 5. The format is functional.
Experiment [5] in a line: cAMP pathway inhibition in counterscreen cell line – TR-FRET cAMP detection, counter-screen for MC4R biased antagonist project, dose response (AID 602305).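 Further: U2OS cells stimulated with forskolin near its EC80 as the cAMP inducer; potency is for inhibition of forskolin-stimulated cAMP signaling.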 It counts as functional, cell-based.
A further experiment concerns the target Melanocortin receptor 4 (Homo sapiens, UniProt P32245). The experiment in a line: inhibitors of MC4R cAMP signaling – cell-based, TR-FRET, biased antagonists, dose response (AID 602298).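 Further: antagonist potency against agonist-stimulated cAMP production.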 The format is functional.
Experiment [6] addresses T3, Neuropeptide Y receptor type 2 (Homo sapiens, UniProt P49146).
T3 sequence (P49146 whole entry): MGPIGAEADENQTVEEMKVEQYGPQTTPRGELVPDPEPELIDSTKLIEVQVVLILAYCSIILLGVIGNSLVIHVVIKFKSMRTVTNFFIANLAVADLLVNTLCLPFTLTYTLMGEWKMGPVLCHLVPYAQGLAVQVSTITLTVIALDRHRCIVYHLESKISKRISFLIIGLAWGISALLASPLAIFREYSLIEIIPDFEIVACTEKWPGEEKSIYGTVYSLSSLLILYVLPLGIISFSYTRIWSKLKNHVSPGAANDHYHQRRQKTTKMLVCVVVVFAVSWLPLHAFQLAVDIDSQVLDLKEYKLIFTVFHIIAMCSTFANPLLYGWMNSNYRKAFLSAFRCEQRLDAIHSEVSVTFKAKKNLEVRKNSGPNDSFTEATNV
The experiment in a line: Fluorescence-based cell-based high-throughput dose response assay for agonists of NPY-Y2. [Related pubchem assays: 1703 (Screening assay (CNGC inhibitors).), 1359 (Screening assay (NPY-Y2 potentiators or agonists).), 1304 (Screening assay (NPY-Y1 potentiators or agonists).), 1710 (Screening assay (NPY-Y2 agonists).), 1791 (Summary AID.)]. The format is functional.

The test system of the next experiment is HEK293. The experiment in a line: Fluorescence-based counterscreen for potentiators or agonists of NPY-Y2: cell-based high-throughput dose response assay to identify inhibitors of cyclic nucleotide gated ion channel (CNGC) activity. In this assay, the parental HEK293 cell line transfected with a cyclic-nucleotide gated ion channel (CNGC)-based cAMP sensor is used to measure inhibition of isoproterenol-induced CNGC activity by test compound. The following applies: Homo sapiens. The format is functional.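 Further: stimulus is 1 µM isoproterenol at EC100 plus PDE inhibitor Ro 20-1724 at 25 µM.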

Experiment [7] has as its target T4, Neuropeptide Y receptor type 1 (Homo sapiens, UniProt P25929).
T4 sequence (P25929 whole entry): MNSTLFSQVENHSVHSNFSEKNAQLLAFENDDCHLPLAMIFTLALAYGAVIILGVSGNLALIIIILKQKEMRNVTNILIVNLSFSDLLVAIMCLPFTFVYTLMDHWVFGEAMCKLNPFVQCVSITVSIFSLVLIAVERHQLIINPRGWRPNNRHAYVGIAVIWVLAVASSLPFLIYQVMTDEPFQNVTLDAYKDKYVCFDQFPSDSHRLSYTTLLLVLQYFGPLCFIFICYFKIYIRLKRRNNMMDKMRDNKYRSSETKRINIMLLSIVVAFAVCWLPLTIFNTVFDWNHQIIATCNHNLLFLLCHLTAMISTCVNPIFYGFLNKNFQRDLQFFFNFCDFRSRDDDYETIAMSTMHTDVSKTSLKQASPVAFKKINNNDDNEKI
The experiment in a line: Fluorescence-based counterscreen for agonists of NPY-Y2: cell-based high-throughput dose response assay for agonists of NPY-Y1. The format is functional.

For experiment [8], the target named is T2, Melanin-concentrating hormone receptor 1. As to the kind of experiment: Late-stage fluorescence-based counterscreen for antagonists of the G-protein coupled receptor 7 (GPR7): cell-based dose response assay to identify antagonists of the melanin-concentrating hormone receptor 1 (MCHR1) Set 6. The format is functional.
Experiment [9] addresses T1, Neuropeptides B/W receptor type 1. The experiment in a line: human NPBW1 receptor blockade, IC50 – cell-based, fluorescence, dose response, set 6, late-stage follow-up (AID 588583). It counts as functional.
For the next experiment, the target named is Activated CDC42 kinase 1 (Homo sapiens, UniProt Q07912). As to the kind of experiment: Navigating the Kinome. Panel member name: ACK1. It counts as functional.
Experiment [10] deals with Serine/threonine-protein kinase PLK1 (Homo sapiens, UniProt P53350). It counts as functional.
Serine/threonine-protein kinase PLK1, sequence (P53350 whole entry): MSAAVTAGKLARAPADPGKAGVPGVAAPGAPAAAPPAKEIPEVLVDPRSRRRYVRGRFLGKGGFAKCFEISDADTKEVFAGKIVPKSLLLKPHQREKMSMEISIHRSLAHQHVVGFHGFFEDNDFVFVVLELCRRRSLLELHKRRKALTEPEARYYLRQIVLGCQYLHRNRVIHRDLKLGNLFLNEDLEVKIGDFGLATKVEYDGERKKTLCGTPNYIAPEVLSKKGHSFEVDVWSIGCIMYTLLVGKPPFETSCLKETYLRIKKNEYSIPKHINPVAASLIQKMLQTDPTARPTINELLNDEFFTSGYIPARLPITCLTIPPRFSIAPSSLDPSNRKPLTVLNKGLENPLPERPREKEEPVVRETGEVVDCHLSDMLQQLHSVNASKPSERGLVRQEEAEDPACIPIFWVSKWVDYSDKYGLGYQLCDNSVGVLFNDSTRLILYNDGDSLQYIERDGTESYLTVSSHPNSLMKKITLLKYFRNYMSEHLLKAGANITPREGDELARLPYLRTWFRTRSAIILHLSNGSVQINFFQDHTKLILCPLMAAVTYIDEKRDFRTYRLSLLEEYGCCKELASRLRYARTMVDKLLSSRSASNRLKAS
The target of experiment [11] is Serine/threonine-protein kinase Nek2 (Homo sapiens, UniProt P51955). It counts as functional.
Experiment [12] concerns the target Leucine-rich repeat serine/threonine-protein kinase 2 (Homo sapiens, UniProt Q5S007). The format is functional.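 Further: value from a broad kinome-wide panel profiling study in which LRRK2 was one of the kinases tested.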
Experiment [13] concerns the target Cyclin-dependent kinase 9 (Homo sapiens, UniProt P50750). It counts as functional.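 Further: value from the CDK9 entry of a kinome-spanning kinase panel.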
For experiment [14], the target named is Dual specificity protein kinase CLK2 (Homo sapiens, UniProt P49760). The format is functional.
Dual specificity protein kinase CLK2, sequence (P49760 whole entry): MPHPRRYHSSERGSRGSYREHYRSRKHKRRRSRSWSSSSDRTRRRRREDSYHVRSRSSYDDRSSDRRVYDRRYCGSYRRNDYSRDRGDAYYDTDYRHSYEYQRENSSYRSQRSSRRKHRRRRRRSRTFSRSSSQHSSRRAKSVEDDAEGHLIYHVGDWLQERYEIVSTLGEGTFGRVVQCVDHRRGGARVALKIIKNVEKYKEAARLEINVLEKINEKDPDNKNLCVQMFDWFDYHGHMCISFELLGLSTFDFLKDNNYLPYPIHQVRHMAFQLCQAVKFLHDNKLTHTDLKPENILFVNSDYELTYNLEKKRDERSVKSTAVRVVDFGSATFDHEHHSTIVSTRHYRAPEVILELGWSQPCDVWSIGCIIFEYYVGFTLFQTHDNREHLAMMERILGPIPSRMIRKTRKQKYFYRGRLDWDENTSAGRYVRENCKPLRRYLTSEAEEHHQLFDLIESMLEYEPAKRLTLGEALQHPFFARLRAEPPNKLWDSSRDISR
The target in experiment [15] is RAC-alpha serine/threonine-protein kinase (Homo sapiens, UniProt P31749). It counts as functional.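 Further: AKT1 affinity measured as one member of a kinome-wide kinase profiling panel.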
The target in a further experiment is Activin receptor type-1 (Homo sapiens, UniProt Q04771). The experiment in a line: Navigating the Kinome. Panel member name: ACVR1. The format is functional.
For experiment [16], the target named is Dual specificity tyrosine-phosphorylation-regulated kinase 1A (Homo sapiens, UniProt Q13627). It counts as functional.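 Further: measured against DYRK1A as one member of a broad kinome profiling panel.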
The target in experiment [17] is Rho-associated protein kinase 1 (Homo sapiens, UniProt Q13464). The format is functional.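 Further: measured within a broad kinome-wide panel profiling many kinases.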
Rho-associated protein kinase 1, sequence (Q13464 whole entry): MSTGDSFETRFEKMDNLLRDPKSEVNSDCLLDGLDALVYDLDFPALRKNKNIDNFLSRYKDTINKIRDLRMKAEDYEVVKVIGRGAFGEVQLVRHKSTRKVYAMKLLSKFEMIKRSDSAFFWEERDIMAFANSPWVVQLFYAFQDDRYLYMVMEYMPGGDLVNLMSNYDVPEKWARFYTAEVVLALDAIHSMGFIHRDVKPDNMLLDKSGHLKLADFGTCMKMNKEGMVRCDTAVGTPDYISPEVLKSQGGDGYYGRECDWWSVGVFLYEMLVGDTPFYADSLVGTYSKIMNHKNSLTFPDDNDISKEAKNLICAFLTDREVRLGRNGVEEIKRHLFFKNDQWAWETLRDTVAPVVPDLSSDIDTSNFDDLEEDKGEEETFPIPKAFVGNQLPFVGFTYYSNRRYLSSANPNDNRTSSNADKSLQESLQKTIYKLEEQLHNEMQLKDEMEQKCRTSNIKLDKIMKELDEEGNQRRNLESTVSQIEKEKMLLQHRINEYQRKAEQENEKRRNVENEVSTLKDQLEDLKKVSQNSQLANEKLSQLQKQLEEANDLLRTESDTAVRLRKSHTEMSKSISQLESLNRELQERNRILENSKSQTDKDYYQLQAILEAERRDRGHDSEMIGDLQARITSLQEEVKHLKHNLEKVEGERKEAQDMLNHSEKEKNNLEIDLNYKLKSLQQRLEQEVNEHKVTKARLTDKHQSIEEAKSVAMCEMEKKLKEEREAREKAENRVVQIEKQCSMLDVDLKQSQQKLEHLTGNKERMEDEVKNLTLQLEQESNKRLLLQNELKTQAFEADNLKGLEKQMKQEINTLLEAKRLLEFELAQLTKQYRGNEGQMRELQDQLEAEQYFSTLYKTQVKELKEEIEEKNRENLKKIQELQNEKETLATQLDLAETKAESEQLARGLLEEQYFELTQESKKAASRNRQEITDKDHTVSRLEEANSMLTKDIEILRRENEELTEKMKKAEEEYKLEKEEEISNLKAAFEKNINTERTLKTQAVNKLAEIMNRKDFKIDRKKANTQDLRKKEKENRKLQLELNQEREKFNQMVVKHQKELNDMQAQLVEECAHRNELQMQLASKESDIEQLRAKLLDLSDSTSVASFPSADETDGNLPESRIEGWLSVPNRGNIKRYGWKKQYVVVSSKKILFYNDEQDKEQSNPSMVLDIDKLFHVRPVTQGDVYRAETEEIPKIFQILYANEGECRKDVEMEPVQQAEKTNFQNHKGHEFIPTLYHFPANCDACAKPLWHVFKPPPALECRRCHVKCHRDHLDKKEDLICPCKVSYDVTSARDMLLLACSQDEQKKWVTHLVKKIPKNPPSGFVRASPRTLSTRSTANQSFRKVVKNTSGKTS
Experiment [18] concerns the target Leukocyte tyrosine kinase receptor (Homo sapiens, UniProt P29376). The experiment in a line: Navigating the Kinome. Panel member name: LTK. It counts as functional.
Experiment [19] has as its target Death-associated protein kinase 3 (Homo sapiens, UniProt O43293). The format is functional.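 Further: measured as one member of a kinome-wide profiling panel.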
For experiment [20], the target named is Dual specificity tyrosine-phosphorylation-regulated kinase 1B (Homo sapiens, UniProt Q9Y463). The experiment in a line: Navigating the Kinome. Panel member name: DYRK1B. It counts as functional.
Experiment [21] has as its target Serine/threonine-protein kinase pim-3 (Homo sapiens, UniProt Q86V86). The format is functional.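 Further: value obtained as one member of a broad kinase panel profiling effort.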
The target of experiment [22] is Tyrosine-protein kinase receptor TYRO3 (Homo sapiens, UniProt Q06418). It counts as functional.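 Further: TYRO3 value obtained as one member of a kinome-wide profiling panel.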
Tyrosine-protein kinase receptor TYRO3, sequence (Q06418 whole entry): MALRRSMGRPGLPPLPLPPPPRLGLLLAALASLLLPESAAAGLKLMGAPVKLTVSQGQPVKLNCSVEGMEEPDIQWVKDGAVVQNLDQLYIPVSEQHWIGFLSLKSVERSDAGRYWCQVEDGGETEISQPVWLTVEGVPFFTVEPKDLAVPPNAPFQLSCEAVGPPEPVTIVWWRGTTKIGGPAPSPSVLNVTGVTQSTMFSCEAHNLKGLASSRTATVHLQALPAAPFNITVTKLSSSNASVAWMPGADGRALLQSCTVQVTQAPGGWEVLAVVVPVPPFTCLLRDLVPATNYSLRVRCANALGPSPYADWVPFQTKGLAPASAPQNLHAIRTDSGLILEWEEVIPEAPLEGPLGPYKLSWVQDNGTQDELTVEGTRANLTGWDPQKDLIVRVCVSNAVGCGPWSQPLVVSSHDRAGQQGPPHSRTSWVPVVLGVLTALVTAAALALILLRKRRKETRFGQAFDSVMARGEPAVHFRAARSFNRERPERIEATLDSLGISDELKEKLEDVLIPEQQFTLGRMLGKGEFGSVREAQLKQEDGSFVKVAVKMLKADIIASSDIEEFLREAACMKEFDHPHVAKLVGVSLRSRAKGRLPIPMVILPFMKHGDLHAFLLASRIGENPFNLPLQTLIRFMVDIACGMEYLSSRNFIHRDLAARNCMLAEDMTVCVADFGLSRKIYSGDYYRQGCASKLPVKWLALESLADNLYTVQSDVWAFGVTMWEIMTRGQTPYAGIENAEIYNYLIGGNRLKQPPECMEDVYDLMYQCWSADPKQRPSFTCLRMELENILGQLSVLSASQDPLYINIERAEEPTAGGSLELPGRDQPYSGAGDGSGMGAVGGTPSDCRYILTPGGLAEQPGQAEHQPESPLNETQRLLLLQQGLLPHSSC
Experiment [23] concerns the target Protein kinase C theta type (Homo sapiens, UniProt Q04759). The experiment in a line: Navigating the Kinome. Panel member name: PRKCQ. It counts as functional.
The target in experiment [24] is Mitogen-activated protein kinase kinase kinase kinase 4 (Homo sapiens, UniProt O95819). It counts as functional.
The target of experiment [25] is Platelet-derived growth factor receptor alpha (Homo sapiens, UniProt P16234). The experiment in a line: Navigating the Kinome. Panel member name: PDGFRA. The format is functional.
Experiment [26] concerns the target Inhibitor of nuclear factor kappa-B kinase subunit epsilon (Homo sapiens, UniProt Q14164). The experiment in a line: Navigating the Kinome. Panel member name: IKBKE. The format is functional.
For experiment [27], the target named is Cyclin-dependent kinase 8 (Homo sapiens, UniProt P49336). The experiment in a line: Navigating the Kinome. Panel member name: CDK8. It counts as functional.
Experiment [28] concerns the target cAMP-dependent protein kinase catalytic subunit PRKX (Homo sapiens, UniProt P51817). The format is functional.
Experiment [29] deals with High affinity nerve growth factor receptor (Homo sapiens, UniProt P04629). The format is functional.
Experiment [30] deals with Serine/threonine-protein kinase pim-1 (Homo sapiens, UniProt P11309). The format is functional.
For the next experiment, the target named is LIM domain kinase 1 (Homo sapiens, UniProt P53667). As to the kind of experiment: Navigating the Kinome. Panel member name: LIMK1. It counts as functional.
Experiment [31] addresses Macrophage colony-stimulating factor 1 receptor (Homo sapiens, UniProt P07333). It counts as functional.
The target in experiment [32] is Mitogen-activated protein kinase 8 (Homo sapiens, UniProt P45983). It counts as functional.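 Further: value comes from one member of a kinome-wide kinase profiling panel.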
Experiment [33] deals with cAMP-dependent protein kinase catalytic subunit alpha (Homo sapiens, UniProt P17612). The format is functional.
Experiment [34] deals with Vascular endothelial growth factor receptor 2 (Homo sapiens, UniProt P35968). It counts as functional.
A further experiment has as its target Aurora kinase A (Homo sapiens, UniProt O14965). It counts as functional.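 Further: value from the Navigating the Kinome kinase panel profiling, panel entry STK6.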
Experiment [35] concerns the target Serine/threonine-protein kinase PLK3 (Homo sapiens, UniProt Q9H4B4). It counts as functional.
For experiment [36], the target named is RAC-gamma serine/threonine-protein kinase (Homo sapiens, UniProt Q9Y243). The format is functional.
The target of experiment [37] is Dual specificity protein kinase CLK4 (Homo sapiens, UniProt Q9HAZ1). The format is functional.
Dual specificity protein kinase CLK4, sequence (Q9HAZ1 whole entry): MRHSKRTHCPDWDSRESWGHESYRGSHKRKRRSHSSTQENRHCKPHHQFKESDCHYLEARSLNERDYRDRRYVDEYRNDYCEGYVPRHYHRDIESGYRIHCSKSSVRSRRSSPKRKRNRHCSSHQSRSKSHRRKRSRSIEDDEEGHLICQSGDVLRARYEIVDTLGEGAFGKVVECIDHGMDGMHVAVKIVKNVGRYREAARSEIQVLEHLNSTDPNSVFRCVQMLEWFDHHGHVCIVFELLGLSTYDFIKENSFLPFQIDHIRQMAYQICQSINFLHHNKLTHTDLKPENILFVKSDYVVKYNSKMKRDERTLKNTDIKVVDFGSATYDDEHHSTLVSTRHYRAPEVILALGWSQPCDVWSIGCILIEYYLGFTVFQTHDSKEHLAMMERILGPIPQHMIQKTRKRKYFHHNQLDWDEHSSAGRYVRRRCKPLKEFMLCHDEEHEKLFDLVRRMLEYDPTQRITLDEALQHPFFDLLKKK
Experiment [38] deals with Serine/threonine-protein kinase D3 (Homo sapiens, UniProt O94806). The format is functional.
In another experiment the target is Aurora kinase B (Homo sapiens, UniProt Q96GD4). It counts as functional.
Experiment [39] addresses Fibroblast growth factor receptor 1 (Homo sapiens, UniProt P11362). The format is functional.
Experiment [40] has as its target Calcium/calmodulin-dependent protein kinase type II subunit alpha (Homo sapiens, UniProt Q9UQM7). As to the kind of experiment: Navigating the Kinome. Panel member name: CAMK2A. The format is functional.
The target in experiment [41] is Cyclin-dependent kinase 7 (Homo sapiens, UniProt P50613). The format is functional.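 Further: value comes from a kinome-wide kinase profiling panel in which CDK7 is one member.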
Experiment [42] deals with 5'-AMP-activated protein kinase catalytic subunit alpha-1 (Homo sapiens, UniProt Q13131). The format is functional.
Experiment [43] deals with Platelet-derived growth factor receptor beta (Homo sapiens, UniProt P09619). It counts as functional.

T2 sequence (Q99705 whole entry): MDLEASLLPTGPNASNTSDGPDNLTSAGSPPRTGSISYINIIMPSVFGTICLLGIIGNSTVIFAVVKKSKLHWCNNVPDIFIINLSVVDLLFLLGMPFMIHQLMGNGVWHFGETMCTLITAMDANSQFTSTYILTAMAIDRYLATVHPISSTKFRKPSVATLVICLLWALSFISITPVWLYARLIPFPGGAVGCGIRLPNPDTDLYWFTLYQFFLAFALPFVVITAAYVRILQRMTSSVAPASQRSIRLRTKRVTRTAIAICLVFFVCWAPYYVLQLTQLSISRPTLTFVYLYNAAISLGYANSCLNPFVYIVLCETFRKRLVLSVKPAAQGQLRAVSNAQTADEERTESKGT
Melanocortin receptor 4, sequence (P32245 whole entry): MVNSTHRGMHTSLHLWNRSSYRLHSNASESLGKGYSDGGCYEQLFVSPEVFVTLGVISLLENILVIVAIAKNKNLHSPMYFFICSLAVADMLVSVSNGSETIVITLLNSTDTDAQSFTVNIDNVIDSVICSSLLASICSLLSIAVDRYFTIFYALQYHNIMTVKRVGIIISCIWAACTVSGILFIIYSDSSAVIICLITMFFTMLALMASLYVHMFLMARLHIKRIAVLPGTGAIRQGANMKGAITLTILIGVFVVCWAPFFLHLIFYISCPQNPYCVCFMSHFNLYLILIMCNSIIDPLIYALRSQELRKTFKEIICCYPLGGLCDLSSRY
Aurora kinase A, sequence (O14965 whole entry): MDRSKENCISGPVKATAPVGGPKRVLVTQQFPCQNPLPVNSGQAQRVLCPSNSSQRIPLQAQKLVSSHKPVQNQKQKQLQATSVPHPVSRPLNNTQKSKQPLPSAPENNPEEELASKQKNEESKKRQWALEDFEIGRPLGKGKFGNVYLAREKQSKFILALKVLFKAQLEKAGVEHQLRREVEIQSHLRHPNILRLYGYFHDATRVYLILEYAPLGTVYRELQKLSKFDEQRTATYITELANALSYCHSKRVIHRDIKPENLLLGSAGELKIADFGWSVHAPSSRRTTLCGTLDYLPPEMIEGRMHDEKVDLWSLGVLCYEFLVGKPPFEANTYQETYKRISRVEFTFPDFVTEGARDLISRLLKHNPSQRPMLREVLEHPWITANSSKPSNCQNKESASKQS

On to `O=C(c1ccc(CNc2c(N3CCCC3)c(=O)c2=O)cc1)N1CC=C(c2ccccc2)CC1`, for which the 50% cytotoxic concentration (CC50) in experiment [1] is 75.8 µM (active); in [2], > 100 µM (inconclusive).
`COc1ccc(Oc2c(Cl)cnn(Cc3ccc(C(=O)c4ccccc4)cc3)c2=O)cc1`: the concentration for half-maximal inhibition (IC50) in [3] is 5.25 µM (active); in experiment [4], 2.46 µM (active).
Take `O=C(Nc1ccccc1C(=O)N1CCCC1)c1ccc(Cl)c([N+](=O)[O-])c1`: the figures for the IC50 (in experiment [5]; on Melanocortin receptor 4) were > 64.6 µM (inactive) and 20.6 µM (inactive), respectively. Further, the concentration for a half-maximal effect (EC50) in [6] is on record as 27.9 µM (not active); in the experiment with HEK293, 28 µM (not active); in [7], 18.6 µM (not active).
On to `N#CC(c1ccc(F)cc1F)c1c(Cl)cnn(Cc2cccc3ccccc23)c1=O` (stereo not given), for which the IC50 in experiment [8] and in [9] was 0.214 µM (active) each time.
Turning to `Nc1n[nH]c2nc(Cl)sc12`, the Ki at Activated CDC42 kinase 1 is 79.4 µM (active); in experiment [10], > 79.4 µM (inactive); in experiment [11], 20 µM (active); in experiment [12], 15.8 µM (active); in [13] it was 12.6 µM (active); in experiment [14], 39.8 µM (active). Moreover, the Ki in experiment [15] is > 79.4 µM (inactive); on Activin receptor type-1 it was 6.31 µM (active); in [16], 6.31 µM (active); in [17], 39.8 µM (active); in experiment [18] it was 15.8 µM (active); in experiment [19], 31.6 µM (active). The inhibitory constant (Ki) in experiment [20] is 15.8 µM (active); in [21], 39.8 µM (active); in experiment [22] it was 50.1 µM (active); in experiment [23], 79.4 µM (active); in experiment [24], 50.1 µM (active); in [25], 50.1 µM (active). Further, the Ki in [26] was 39.8 µM (active); in [27] it was 15.8 µM (active); in experiment [28], 50.1 µM (active); in experiment [29], 25.1 µM (active); in experiment [30] it was > 63.1 µM (inactive); on LIM domain kinase 1, 12.6 µM (active). Besides, the Ki is > 63.1 µM (inactive) in experiment [31]; 63.1 µM (active) in [32]; 31.6 µM (active) in experiment [33]; > 100 µM (inactive) in experiment [34]; 25.1 µM (active) on Aurora kinase A; > 79.4 µM (inactive) in [35]. Moreover, the Ki was > 100 µM (inactive) in experiment [36]; 5.01 µM (active) in experiment [37]; 63.1 µM (active) in [38]; 50.1 µM (active) at Aurora kinase B; > 63.1 µM (inactive) in experiment [39]; 63.1 µM (active) in experiment [40]. Further, the inhibitory constant (Ki) in [41] is 39.8 µM (active); in [42] it was 39.8 µM (active); in [43], > 79.4 µM (inactive).

The values are drawn from ChEMBL document CHEMBL1201862, “PubChem BioAssay data set” (2004).
